Laboratory results published in paper PMC3060409 (Biochemical and biophysical research communications, 2011).
Ends that are not written are not given here.

Assays:
[1] = test system: ARPE-19 cells (SOPT1 and SOPT2); format: cell-based, human; conditions: naloxone 1 mM, 15 min preincubation, FITC-hepcidin 2.5 μM
[2] = test system: SOPT1 ([3H]-deltorphin II uptake in RPE cells); assay: Inhibition of [3H]-deltorphin II uptake in human RPE cells; format: cell-based; conditions: [3H]-deltorphin II 20 nM, 30 min
[3] = test system: SOPT1 ([3H]-deltorphin II uptake in mouse RPE cells); assay: Inhibition/stimulation of [3H]-deltorphin II uptake in mouse primary RPE cells; format: cell-based, mouse (C57/Bl6); conditions: [3H]-deltorphin II 20 nM, 30 min
[4] = test system: SOPT2 ([3H]-DADLE uptake in RPE cells); assay: Inhibition of [3H]-DADLE uptake in human RPE cells; format: cell-based
[5] = test system: SOPT2 ([3H]-DADLE uptake in mouse RPE cells); assay: Inhibition of [3H]-DADLE uptake in mouse primary RPE cells; format: cell-based, mouse (C57/Bl6); conditions: hepcidin 25 μM, [3H]-DADLE 10 nM, 30 min
ferroportin mRNA [6] = assay: Ferroportin mRNA levels, semi-quantitative RT-PCR; format: cell-based; conditions: mouse primary RPE; hepcidin 2 μg/ml, 8 h; HPRT1 internal control
ferroportin mRNA [7] = assay: Ferroportin mRNA levels, real-time RT-PCR; format: cell-based; conditions: mouse primary RPE; hepcidin 2 μg/ml, 8 h; P < 0.001 (Fig. 4)
HFE mRNA = HFE mRNA levels, RT-PCR; format: cell-based; conditions: mouse primary RPE; hepcidin 2 μg/ml, 8 h
transferrin receptor 1 = assay: Transferrin receptor 1 expression; format: cell-based; conditions: mouse RPE; hepcidin treatment; data not shown
transferrin = assay: Transferrin expression; format: cell-based; conditions: mouse RPE; hepcidin treatment; data not shown
hemojuvelin = assay: Hemojuvelin expression; format: cell-based; conditions: mouse RPE; hepcidin treatment; data not shown
ferroportin = conditions: target cells; ref [14]; cited from earlier work
SOPT1 = conditions: ref [2]; cited from earlier work
SOPT1 and SOPT2 = conditions: ref [5]; cited from earlier work

In the case of `C=CCN1CC[C@]23c4c5ccc(O)c4O[C@H]2C(=O)CC[C@@]3(O)[C@H]1C5` [naloxone], the “effect on FITC-hepcidin uptake (flow cytometry)” value [1] is reported as “did not alter the uptake”.

With “DTHFPICIFCCGCCHRSKCGYCCKT (cysteine pairing not given here) [hepcidin]” the “dose dependence of deltorphin II uptake inhibition” value ([2]; RPE cells, Fig. 1B) was “dose-dependent”, the IC50 ([2]; read-out: IC50, inhibition of deltorphin II uptake, ARPE-19 cells, 25 mM HEPES/Tris pH 7.5, 140 mM NaCl, means ± S.E., three independent experiments in duplicate) was 420 ± 120 nM and the “inhibition of deltorphin II uptake” value ([3]; hepcidin 25 μM, mouse primary RPE) was “almost completely inhibited”. The “dose dependence of DADLE uptake inhibition” value ([4]; [3H]-DADLE 10 nM, 30 min, Fig. 1C) was “dose-dependent”, the “inhibition of DADLE uptake” value [5] was “almost completely inhibited” and the “ferroportin mRNA levels (RT-PCR)” value (ferroportin mRNA [6]) was “significant reduction in ferroportin mRNA levels”. The “ferroportin mRNA levels (real-time RT-PCR)” value (ferroportin mRNA [7]) was “decrease in ferroportin mRNA levels was confirmed”, the “HFE mRNA levels” value (HFE mRNA) was “no effect on HFE mRNA levels” and the “transferrin receptor 1 expression” value (transferrin receptor 1) was “none of these genes was altered”. For the same molecule, the transferrin expression (transferrin) was “none of these genes was altered”, the hemojuvelin expression (hemojuvelin) was “none of these genes was altered” and the “binding to ferroportin with internalization and degradation” value (ferroportin) was “binds to ferroportin on target cells and that this complex gets internalized with subsequent degradation”.

In the case of Gly-Gly-Ile, the “effect on deltorphin II uptake (stimulation)” value ([3]; mouse RPE cells, Gly-Gly-Ile 1 mM) is listed as “stimulated deltorphin II uptake” and the “stimulation of SOPT1” value (SOPT1) is listed as “potent stimulator of SOPT1”.

For “HIV-Tat47–57: exogenous oligopeptide recognized by SOPT1 and SOPT2 (YGRKKRRQRRR; Tat; UniProt P04608 47-57, looked up, fragment)”, the “recognition by SOPT1 and SOPT2” value (SOPT1 and SOPT2) is given as “recognize”.

For [tyrosyl-3,5–^3H(N)]DADLE [[^3H]-DADLE], the “non-mediated diffusional component of uptake” value ([4]; [3H]-DADLE uptake in presence of 1 mM unlabeled DADLE, pH 7.5) was < 5 % of measured total uptake.
